The values below are quoted from earlier work in US20200147064A1, “Reduction of Pro-Inflammatory HDL Using a Leukotriene Inhibitor” (Autoimmune Pharma LLC, priority 2017, published 2020).

This data set concerns leukotriene production. Particulars: statement in words, cited from Stock, N S et al., J Med Chem. 2011.

Turning to `CCOc1ccc(-c2ccc(Cn3c(CC(C)(C)C(=O)O)c(SC(C)(C)C)c4cc(OCc5ccc(C)cn5)ccc43)cc2)cn1` [Compound 2-107, 3-[3-tert-butylsulfanyl-1-[4-(6-ethoxy-pyridin-3-yl)-benzyl]-5-(5-methyl-pyridin-2-ylmethoxy)-1H-indol-2-yl]-2,2-dimethyl-propionic acid], the “inhibitor of leukotriene production in vivo” value is listed as “potent inhibitor of leukotriene production in vivo”.
